From US20060276455A1, “Use of a mast cell activation or degranulation blocking agent in the manufacture of a medicament for the treatment of cerebral ischemia” (priority 2003, published 2006)

Legend:
[1] = system: focal cerebral ischemia in rats (middle cerebral artery occlusion); assay: Postischemic neutrophil response (Leder staining) after transient MCA occlusion; assay type: in vivo, rat; conditions: i.c.v. pretreatment, 4 h after MCAO, vs control
Description: We used the suture MCA occlusion model with reperfusion, described elsewhere. Briefly, we exposed the right common carotid artery (CCA) and the right external carotid artery (ECA) through a ventral midline neck incision. We ligated the proximal CCA and the origin of the ECA. We inserted a 4-0 nylon mono-filament suture (Ethilon Nylon Suture, ETHICON) with its tip rounded by heating near a flame and then coated with silicone into the right CCA via an arteriectomy. Reperfusion was accomplished by withdrawing the suture occluder 60 minutes after MCAO, whereafter the animals were allowed to recover. Four hours after MCAO, the rats were killed by injecting intraperitoneally 120 mg of pentobarbital natrium (Mebumat). Cardiac perfusion was performed with the heart still beating but respiration ceased by infusing 250 mL of ice cold 0.9% saline at an inflow pressure of 100 mmHg into the arterial vascular system. […] The densities of intravascular and emigrated neutrophils were counted without prior knowledge of animal grouping in systematically placed target areas, the temporoparietal infarction core, the parasagittal infarct penumbra and the deep thalamic and basal ganglia. In each area, 60 to 100 microscopic fields of 0.1 mm^2 were counted and averaged for each location. […]

[2] = system: cerebral hemorrhage in rats; assay: Surgically induced cerebral hemorrhage (autologous blood injection), outcome at 24 h; conditions: i.c.v.
Protocol: In anesthesized rats, 2 craniotomies were performed for the introduction of drug infusion and blood. We injected 50 microliters of autologous arterial blood via stereotactically a Hamilton needle tip placed to the caudate putamen (6 mm from skull surface), a common location of spontaneous cerebral hemorrhages.
Animals were allowed to recover and 24 h later their level of neurological deterioration was rated on a 6-point scale: 5=dead, 4=stuporous, moribund, 3=hemiparetic with balance disturbance, 2=hemiparesis, 1=paresis of contralateral paw, 0=normal. The mortality was also recorded by 24 hours.

For `O=C(O)c1cc(=O)c2c(OCC(O)COc3cccc4oc(C(=O)O)cc(=O)c34)cccc2o1` [disodium cromoglycate], the “decrease of density of neutrophils in the infarcted hemisphere” value [1] was 37%, the “six-point neurological score (0=normal, 5=dead), average” value ([2]; 24 h, saline-treated 3.2, p<0.01) was 0.89 and the “mortality by 24 hours” value ([2]; saline-treated group 40%) was 0%.
